The text below walks through data of PubChem BioAssay AID2127 (Sanford-Burnham Center for Chemical Genomics, 2009).

The source made the active and inactive calls.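 How the source made its calls: active means half-maximal inhibitory concentration below a set limit; inactive means the rest.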

The assay deals with E3 ubiquitin-protein ligase SIAH1 (Homo sapiens) (UniProt Q8IUQ4). As to the kind of experiment: Siah-1 peptide-binding antagonists, alternate label, dose response, artefact control for Siah-1 antagonist project, biochemical, fluorescence polarization, fluorescein-plectin (AID 2127). Particulars: Siah-1/fluorescein-plectin binding.
Regarding `COc1cc(CNc2ccc(O)cc2)cc(Br)c1OCc1ccccc1F`, the IC50 was > 200 µM (inactive).
Under `CCCCn1c(NS(=O)(=O)c2ccccc2)c(S(=O)(=O)c2ccc(C)cc2)c2nc3ccccc3nc21` stands > 200 µM (inactive); under `CCN(CC)c1ccc(/C=c2\sc3nnc(-c4ccccc4Cl)n3c2=O)cc1`, > 200 µM (inactive).
On to `O=C(Nc1cc([N+](=O)[O-])ccc1N1CCOCC1)c1cccs1`, for which the IC50 is > 200 µM (inactive).
For the molecule `O=C(Nc1nc(-c2cc3ccccc3oc2=O)cs1)c1ccco1`, the IC50 was > 200 µM (inactive).
On to `CCNc1ccc(C(=O)O)cc1N`, for which the IC50 result is “inactive”.
In the case of `COc1ccc(CNC(=S)Nc2cc(OC)ccc2OC)cc1`, the IC50 is > 200 µM (inactive).
The value for `Cc1ccc(CNc2ccc(O)cc2)cc1` was > 200 µM (inactive).
On to `COc1cc(NS(=O)(=O)c2ccc(NC(=S)NC(=O)/C=C/c3ccc(F)cc3)cc2)ncn1`, for which the IC50 is > 200 µM (inactive).
The value for `CS(=O)(=O)N1CCN(c2ccc([N+](=O)[O-])c(SCc3ccco3)c2)CC1` was > 200 µM (inactive).
Under `O=C(NCc1ccc(Cl)cc1)c1cc(-c2cccs2)on1` stands > 200 µM (inactive); under `CC1=C(C#N)c2nc(N)c(C#N)c(C)c2/C1=C\c1ccc(-c2ccccc2C(=O)O)o1`, > 200 µM (inactive); under `O=C(Nc1ccc(Oc2ccsc2C(=O)O)cc1)c1ccccc1F`, > 200 µM (inactive).
Under `CCN(CC)CCOC(=O)c1ccc(N/C=C(/C#N)c2nc(-c3ccc(OC)c(OC)c3)cs2)cc1` stands > 200 µM (inactive).
In the case of `Cc1cc(C)n2ncc(C(=O)Nc3ccc4c(c3)OCO4)c2n1`, the IC50 was > 200 µM (inactive).
The value for `O=C(CCN1CCN(Cc2ccccc2)CC1)Nc1cccc(Cl)c1` was > 200 µM (inactive).
As to `Cc1c(Cc2ccccc2)c(=O)oc2c(C)c(OCC(=O)N[C@@H](Cc3ccccc3)C(=O)O)ccc12`, the IC50 was > 200 µM (inactive).
The value for `O=C(O)c1cc(Cl)c(Cl)cc1C(=O)Nc1cccc2cccnc12` was > 200 µM (inactive); that for `CC1CCN(C(=O)C2CCC(C)(C(=O)O)C2(C)C)CC1` (stereo not given) was > 200 µM (inactive); that for `Cc1ccn2c(C(=O)CSc3ccc(Cl)cc3Cl)c(C)nc2c1` was > 200 µM (inactive).
On to `Cc1cc(C)n(-c2ccc(Cl)c(C(=O)Nc3cc(C(F)(F)F)ccc3Cl)n2)n1`, for which the IC50 is > 200 µM (inactive).
As for `CC1=CC(C)(C)N2C(=O)C(=Nc3ccc(O)cc3)c3cccc1c32`, the IC50 is > 200 µM (inactive).
As to `CCn1c(O)c(C=Nc2ccc(N3CCOCC3)cc2)c(=O)n(CC)c1=S`, the IC50 is 13.9 µM.
For the molecule `CCCCn1c(NC(=O)c2ccco2)c(S(=O)(=O)c2ccc(C)cc2)c2nc3ccccc3nc21`, the IC50 is > 200 µM (inactive).
On to `CCCCn1c(NS(=O)(=O)c2ccc(C)cc2)c(S(=O)(=O)c2ccccc2)c2nc3ccccc3nc21`, for which the IC50 was > 200 µM (inactive).
On to `CC(C)(C)c1ccc(C(CC(=O)O)NC(=O)Cc2ccc(F)cc2)cc1` (stereo not given), for which the IC50 is > 200 µM (inactive).
Turning to `O=S(=O)(Nc1c(S(=O)(=O)c2ccccc2)c2nc3ccccc3nc2n1C1CCCCC1)c1ccccc1`, the IC50 was > 200 µM (inactive).
For the molecule `O=C(CSc1ccc(Br)c2cccc(Cl)c12)Nc1ccc(S(=O)(=O)Nc2nccs2)cc1`, the IC50 was > 200 µM (inactive).
Consider `COCCOC(=O)c1sc(=S)n(CCOC)c1N`, for which the IC50 was 15.3 µM.
Turning to `N#C/C(=C\c1c(F)cccc1Cl)C(=O)NC1CC1`, the IC50 was > 200 µM (inactive).
The value for `CC1CCN(S(=O)(=O)c2nnc(NC(=O)c3cccc(Cl)c3)s2)CC1` was > 200 µM (inactive); that for `CCC1=Nc2cc(C(=O)O)ccc2Sc2ccccc21` was > 200 µM (inactive); that for `CC1(C)Cc2c(sc(/N=C/N3CCCCCC3)c2C#N)C(C)(C)N1` was > 200 µM (inactive).
`O=C(/C=C/c1ccco1)OCc1nnc(-c2ccccc2)o1`: the IC50 is > 200 µM (inactive).
Take `CC[n+]1c(/C=C/N(C)c2ccccc2)sc2ccc(Cl)cc21`: the IC50 is > 200 µM (inactive).
For `Cc1cc(Cl)ccc1NC(=O)CN1CCC(C(O)(c2ccccc2)c2ccccc2)CC1`, the IC50 was > 200 µM (inactive).
For `Oc1ccc(N=Cc2sc3ccccc3c2Cl)cc1`, the IC50 was > 200 µM (inactive).
In the case of `CCOC(=O)C1(C)C=C(Nc2ccc(O)cc2)C(=O)N1c1ccc(O)cc1` (stereo not given), the IC50 was > 200 µM (inactive).
For the molecule `O=C(O)CCN1C(=O)/C(=C/c2cn(-c3ccccc3)nc2-c2cccs2)SC1=S`, the IC50 is > 200 µM (inactive).
On to `C=CCn1c(NS(=O)(=O)c2ccccc2)c(S(=O)(=O)c2ccc(C)cc2)c2nc3ccccc3nc21`, for which the IC50 is > 200 µM (inactive).
For the molecule `Cc1cc(C)c(C#N)c(Nc2ccccc2C)n1`, the IC50 was > 200 µM (inactive).
`O=C(O)c1cc(O)c2c(c1)C(=O)c1cccc(O)c1C2=O`: the IC50 result is “inactive”.
On to `COC(=O)C1CC(=O)N(c2ccc(OCc3ccccc3Cl)cc2)C1` (stereo not given), for which the IC50 is > 200 µM (inactive).
On to `O=c1[nH]c(-c2ccc(F)cc2)nc2c1sc(=S)n2-c1ccccc1`, for which the IC50 is > 200 µM (inactive).
The value for `COC(=O)C1C=C2c3cccc4[nH]cc(c34)CC2N(C)C1` (stereo not given) was 6.23 µM; that for `CCOC(=O)C1=C(C)N=c2s/c(=C\c3ccc(OCC(=O)O)cc3)c(=O)n2C1c1ccc(Cl)cc1` (stereo not given) was > 200 µM (inactive).
For the molecule `O=C(N/N=C/c1cccc(Br)c1)c1ccc(Br)cc1`, the IC50 was > 200 µM (inactive).
As to `O=S(=O)(Nc1nc2ccccc2nc1Nc1ccc(N2CCOCC2)cc1)c1cc(Cl)ccc1Cl`, the IC50 was > 200 µM (inactive).
`Cc1c(C(=O)O)sc2nc(CSc3ncc(C(F)(F)F)cc3Cl)[nH]c(=O)c12`: the IC50 was > 200 µM (inactive).
The value for `O=C(Nc1ccc(Cl)cc1)c1ccc(S(=O)(=O)N2CCOCC2)cc1` was > 200 µM (inactive).
As to `C=CCc1cccc2cc(C(=O)Nc3ccc(CC(=O)O)cc3)c(=O)oc12`, the IC50 is > 200 µM (inactive).
The value for `Cc1ccc2c(c1)N(CC(=O)NCCc1ccc(Cl)cc1)C(=O)c1cccnc1O2` was > 200 µM (inactive); that for `CSc1n[nH]c(NCc2ccc(Cl)cc2)n1` was > 200 µM (inactive); that for `Fc1ccc(/C=N/NC(=S)Nc2cccnc2)cc1F` was > 200 µM (inactive).
Take `COc1cc(/C=C(\C#N)c2nc3ccccc3[nH]2)ccc1OC(=O)c1ccco1`: the IC50 is > 200 µM (inactive).
`Cc1ccc(C(=O)NC2CC3CCCC(C2)N3C(=O)NC2CCCCC2)cc1` (stereo not given): the IC50 is > 200 µM (inactive).
With `O=C(Nc1ccc(S(=O)(=O)N2CCOCC2)cc1)c1ccc(=O)[nH]c1`, the IC50 is > 200 µM (inactive).
With `CC(=O)c1ccc(S(=O)(=O)Nc2ccc(-c3ccc4nnc(C)n4n3)cc2)cc1`, the IC50 was > 200 µM (inactive).
In the case of `CC1CCN(S(=O)(=O)c2ccc3c(c2)c(=O)c(C(=O)NCc2ccccc2Cl)cn3C)CC1`, the IC50 is > 200 µM (inactive).
On to `Nc1ccc(S(=O)(=O)Nc2ccc(S(N)(=O)=O)cc2)cc1`, for which the IC50 is > 200 µM (inactive).
Under `O=C(Cn1cnc2scc(-c3ccccc3)c2c1=O)NCc1ccco1` stands > 200 µM (inactive); under `COc1ccc(-c2cnnn2-c2ccc(N)cc2)cc1OC`, > 200 µM (inactive); under `Cc1ccc(OCCCN2CCOCC2)cc1`, > 200 µM (inactive).
The value for `Cc1ccc(S(=O)(=O)N2CCC(=O)N(C(COCc3cccc(C)c3)Cc3ccccc3)CC2)cc1` (stereo not given) was > 200 µM (inactive); that for `COc1cccc2cc(C(=O)N3CCc4ccccc43)c(=O)oc12` was > 200 µM (inactive); that for `CSc1ccccc1C(=O)NC(C)c1ccc(-n2ccnc2)cc1` (stereo not given) was > 200 µM (inactive).
On to `NS(=O)(=O)c1ccc(NC(=O)c2cccc(N3C(=O)c4ccccc4C3=O)c2)cc1`, for which the IC50 is > 200 µM (inactive).
Turning to `COC(=O)c1c(C(=O)OC)c2cccc3cc(-c4ccccc4)c4ccc1c4n32`, the IC50 result is “inactive”.
Turning to `Cc1cc(C)nc(N=Nc2c(O)n(Cc3ccc(Cl)cc3)c3ccccc23)n1`, the IC50 was > 200 µM (inactive).
Turning to `Cc1cc2cc(CNC(=O)c3ccc(S(=O)(=O)N4CCCCC4)cc3)ccc2n1C`, the IC50 entry is “inactive”.
In the case of `CCN(CC)c1ccc(C=N/C(C#N)=C(\N)C#N)cc1`, the IC50 is > 200 µM (inactive).
Regarding `CCOC(=O)c1c(C)[nH]c2c1-c1ccccc1C(=O)C2=O`, the IC50 was > 200 µM (inactive).
In the case of `O=c1[nH]c2ccc(S(=O)(=O)N3CCCCC3)cc2s1`, the IC50 was > 200 µM (inactive).
Take `CC(NC(=O)Nc1ccc(O)cc1)(C(F)(F)F)C(F)(F)F`: the IC50 is > 200 µM (inactive).
As for `Cc1ccc(S(=O)(=O)NN=C2C3CC4CC(C3)CC2C4)cc1[N+](=O)[O-]`, the IC50 was > 200 µM (inactive).
Take `O=C(Nc1ccccc1N1CCCCC1)c1ccc(-c2cccc(Cl)c2)o1`: the IC50 was > 200 µM (inactive).
As to `O=c1[nH]n(-c2ccc([N+](=O)[O-])cc2)c(=O)c2ccccc12`, the IC50 was > 200 µM (inactive).
On to `Oc1ccc(N=Cc2ccc(OCc3ccccc3)cc2)cc1`, for which the IC50 was > 200 µM (inactive).
For the molecule `CCN(CC)CCOC(=O)c1ccc(N/C=C(/C#N)c2nc(-c3cc4ccccc4oc3=O)cs2)cc1`, the IC50 is > 200 µM (inactive).
For `COc1cc(/C=C2/SC(=S)N(Cc3ccccc3)C2=O)cc(Cl)c1O`, the IC50 is > 200 µM (inactive).
Under `CCCCN(Cc1cc2cc(OC)ccc2[nH]c1=O)S(=O)(=O)c1ccc(C)cc1` stands > 200 µM (inactive); under `O=c1ccc2c(-c3ccccc3)c3ccc(O)cc3oc-2c1`, > 200 µM (inactive).
Under `O=C(Nc1ccc(Cl)cc1)OCc1cn(-c2ccccc2)nn1` stands > 200 µM (inactive).
For `COC(=O)c1ccc2c(c1)C(C)(C)C(/C=C/c1ccccc1O)=[N+]2C`, the IC50 was > 200 µM (inactive).
`CCCCn1c(NS(=O)(=O)c2ccccc2)c(C(=O)OCC)c2nc3ccccc3nc21`: the IC50 was > 200 µM (inactive).
